Measured values as given in the supplement of paper PMC10307832.

Columns and labels:
Test in all cases: relative viability (nuclei count vs DMSO), 5 days (fraction); higher = more cells survive
BAY61-3606 + AZD7762 = compound: COC1=C(C=C(C=C1)C2=CC3=NC=CN3C(=N2)NC4=C(C=CC=N4)C(=O)N)OC [BAY61-3606] + NC(=O)Nc1cc(-c2cccc(F)c2)sc1C(=O)N[C@H]1CCCNC1 [AZD7762] (partner 0.2 µM)
Procedure, shortened: (§1)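 Relative viability divides the nuclei count in treated wells by that in vehicle wells. Lung cancer cell lines were seeded in 1536-well plates, dosed by pin tool the next day, and fixed and stained after 5 days in one step with final 0.05% Triton X-100, 1% formaldehyde and 1 ug/ml Hoechst. Dosing was a single drug or a fixed anchor-drug dose plus five library-drug doses (not always all listed) in √10 steps, and values are medians of duplicate plates imaged at 4×.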

Doxorubicin + Alpelisib = compound: COc1cccc2c1C(=O)c1c(O)c3c(c(O)c1C2=O)C[C@@](O)(C(=O)CO)C[C@@H]3O[C@H]1C[C@H](N)[C@H](O)[C@H](C)O1 [Doxorubicin] + Cc1nc(NC(=O)N2CCC[C@H]2C(N)=O)sc1-c1ccnc(C(C)(C)C(F)(F)F)c1 [Alpelisib] (partner 2 µM)
Procedure, shortened: as §1

BAY61-3606 + Tozasertib = compound: COC1=C(C=C(C=C1)C2=CC3=NC=CN3C(=N2)NC4=C(C=CC=N4)C(=O)N)OC [BAY61-3606] + Cc1cc(Nc2cc(N3CCN(C)CC3)nc(Sc3ccc(NC(=O)C4CC4)cc3)n2)n[nH]1 [Tozasertib] (partner 0.1 µM)
Procedure, shortened: as §1

BAY61-3606 + OSI-027 = compound: COC1=C(C=C(C=C1)C2=CC3=NC=CN3C(=N2)NC4=C(C=CC=N4)C(=O)N)OC [BAY61-3606] + COc1cccc2cc(-c3nc([C@H]4CC[C@H](C(=O)O)CC4)n4ncnc(N)c34)[nH]c12 [OSI-027] (partner 0.5 µM)
Procedure, shortened: as §1

Cell Line	relative viability (BAY61-3606 + AZD7762; first compound 0.02 µM)	relative viability (BAY61-3606 + AZD7762; first compound 0.06325 µM)	relative viability (BAY61-3606 + AZD7762; first compound 0.2 µM)	relative viability (BAY61-3606 + AZD7762; first compound 0.6325 µM)	relative viability (BAY61-3606 + AZD7762; first compound 2 µM)	relative viability (Doxorubicin + Alpelisib; first compound 0.003162 µM)	relative viability (Doxorubicin + Alpelisib; first compound 0.01 µM)	relative viability (Doxorubicin + Alpelisib; first compound 0.03162 µM)	relative viability (Doxorubicin + Alpelisib; first compound 0.1 µM)	relative viability (BAY61-3606 + Tozasertib; first compound 0.02 µM)	relative viability (BAY61-3606 + Tozasertib; first compound 0.06325 µM)	relative viability (BAY61-3606 + Tozasertib; first compound 0.6325 µM)	relative viability (BAY61-3606 + Tozasertib; first compound 2 µM)	relative viability (BAY61-3606 + OSI-027; first compound 0.02 µM)	relative viability (BAY61-3606 + OSI-027; first compound 0.06325 µM)	relative viability (BAY61-3606 + OSI-027; first compound 0.6325 µM)	relative viability (BAY61-3606 + OSI-027; first compound 2 µM)	relative viability (Doxorubicin + Alpelisib; first compound 0.001 µM)	relative viability (BAY61-3606 + Tozasertib; first compound 0.2 µM)	relative viability (BAY61-3606 + OSI-027; first compound 0.2 µM)
NCI-H1793	0.483	0.277	0.448	0.636	0.504	0.557	0.675	0.389	0.588	0.313	0.227	0.203	0.222	0.259	0.276	0.255	0.235			
HCC-44	1.01	1.1	0.962	1.01	1.1	0.801	0.751	0.78	0.93	0.91		0.533	0.327	0.562		0.583	0.548	0.823	0.832	0.474
201T	0.592	0.759	0.752	0.661	0.688	0.969	0.985	0.969	1.02	1	0.593	0.565	0.378	0.759		0.661	0.512	1.02	0.774	0.703
HOP-62		0.643	0.517	0.748	0.531	1.26	1.15	0.879	0.934	0.323	0.224	0.286	0.144	0.859	0.838	0.786	0.714	0.873	0.297	0.774
NCI-H838	1.06	0.847	0.954	0.908	0.895	1.05	0.979	0.919	0.461	0.285	0.224	0.23	0.224	0.456	0.36	0.411	0.298	1	0.234	0.429
NCI-H2085	1.01	1.08	0.969	1.1	0.942	1	0.992	0.739	0.686	0.809	0.531	0.481	0.345	0.868	0.901	0.769	0.53	0.936	0.546	0.711
NCI-H23	0.227	0.192	0.251	0.265	0.224	0.716	0.555	0.517	0.662	0.378	0.342	0.342	0.236	0.629	0.72	0.561	0.512		0.296	0.442
A-427	0.831	0.689	0.659	0.752	0.682	1.09	1.09	1.09	1.15	0.222	0.183	0.222	0.187	0.538	0.44	0.542	0.476	1.11	0.171	0.479
NCI-H647	0.433	0.393	0.383	0.444	0.324	1.08	0.98	0.288	0.163	0.339	0.176	0.258	0.131	0.648	0.567	0.423	0.277	1.15	0.167	0.691
NCI-H1734	0.554	0.508	0.557	0.502	0.374	0.682	0.662	0.604	0.661	0.238	0.243	0.227	0.196	0.605	0.523	0.542	0.372	0.589	0.222	0.529
NCI-H1915	0.658	0.708	0.641	0.659	0.66	1.05	1.1	1.05	1.12	0.416	0.329	0.277	0.152	0.623	0.632	0.662	0.443	0.98	0.365	0.571
NCI-H441	1.21	1.29	1.04	1.3	0.974	0.713	0.684	0.234	0.393	0.636	0.558	0.314	0.274	0.587	0.713	0.557	0.313		0.363	0.428
HCC-366	0.286	0.222	0.282	0.265	0.283	0.348	0.439	0.369	0.367	0.115	0.0576	0.0443	0.0501	1.07	0.875	0.862	0.715		0.0642	0.81
EMC-BAC-2	1.12	0.888	1.1	1.32	1.12	0.88	0.679	0.734	0.717	0.288	0.19	0.238	0.225	0.391	0.391	0.363	0.318	0.799	0.243	0.356
LK-2	0.369	0.309	0.472	0.534	0.361	0.642	0.947	0.868	0.85	0.19	0.163	0.158	0.21	0.197	0.16	0.231	0.185	0.521	0.193	0.22
NCI-H460	0.63	0.646	0.739	0.631	0.766	0.386	0.288	0.024	0.0112	0.447	0.0447	0.0713	0.0263	0.781	0.672	0.467	0.214	0.584	0.139	0.657

Cell Line	relative viability (BAY61-3606 + AZD7762; first compound 0.02 µM)	relative viability (BAY61-3606 + AZD7762; first compound 0.06325 µM)	relative viability (BAY61-3606 + AZD7762; first compound 0.2 µM)	relative viability (BAY61-3606 + AZD7762; first compound 0.6325 µM)	relative viability (BAY61-3606 + AZD7762; first compound 2 µM)	relative viability (Doxorubicin + Alpelisib; first compound 0.003162 µM)	relative viability (Doxorubicin + Alpelisib; first compound 0.01 µM)	relative viability (Doxorubicin + Alpelisib; first compound 0.03162 µM)	relative viability (Doxorubicin + Alpelisib; first compound 0.1 µM)	relative viability (BAY61-3606 + Tozasertib; first compound 0.02 µM)	relative viability (BAY61-3606 + Tozasertib; first compound 0.06325 µM)	relative viability (BAY61-3606 + Tozasertib; first compound 0.6325 µM)	relative viability (BAY61-3606 + Tozasertib; first compound 2 µM)	relative viability (BAY61-3606 + OSI-027; first compound 0.02 µM)	relative viability (BAY61-3606 + OSI-027; first compound 0.06325 µM)	relative viability (BAY61-3606 + OSI-027; first compound 0.6325 µM)	relative viability (BAY61-3606 + OSI-027; first compound 2 µM)	relative viability (Doxorubicin + Alpelisib; first compound 0.001 µM)	relative viability (BAY61-3606 + Tozasertib; first compound 0.2 µM)	relative viability (BAY61-3606 + OSI-027; first compound 0.2 µM)
NCI-H1993	0.823	0.824	0.614	0.869	0.739	0.627	0.696	0.627	0.619	0.521	0.582	0.59	0.577	0.586	0.583	0.564	0.587	0.677	0.621	0.505
NCI-H2170	0.895	0.913	0.885	0.85	0.585	0.966	0.727	0.682	0.877	0.714	0.475	0.607	0.213	0.693	0.65	0.776	0.597	0.896	0.751	0.8
LXF-289	1.13	1.1	1.04	1.24	1.24	1.1	1.07	1.08	1.06	0.227	0.183	0.16	0.165	0.938	0.834	0.888	0.825	1.02	0.194	0.687
NCI-H596	1.04	0.929	1.13	1.7	0.846	0.537	0.524	0.446	0.551	1.2	0.941	0.844	0.435	0.699	0.535	0.711	0.462	0.446	0.746	0.647
NCI-H3122	0.989	0.968	0.962	1.02	0.945	0.776	0.815	0.782	0.768	0.456	0.262	0.438	0.305	1.02	0.922	1.27	0.847	0.835	0.377	0.891
HCC-15	1.31	0.919	1.29	1.25	1.16	0.939	0.633	0.727	0.573	0.29	0.194	0.2	0.149	0.704	0.613	0.693	0.553	0.85	0.222	0.721
HCC-78	0.645	0.51	0.652	0.487	0.674	0.269	0.548	0.298	0.312	0.499	0.317	0.415	0.28	0.411	0.393	0.351	0.427	0.374	0.312	0.404
HCC-827	0.219	0.176	0.211	0.215	0.207	1.15	0.968	1.02	1.05	0.412	0.415	0.387	0.38	0.698	0.845	0.803	0.787	1.04	0.373	0.817
NCI-H1355	0.833	0.531	0.679	0.749	0.529	0.96	0.889	0.839	0.823	0.568	0.344	0.344	0.214	0.409	0.329	0.377	0.286	0.868	0.49	0.374
RERF-LC-KJ	1.07	0.846	1.03	0.872	0.869	0.885	0.893	0.675	0.719	0.532	0.435	0.368	0.279	0.605	0.533	0.621	0.379	0.815	0.399	0.573
NCI-H2126	1.06	1.09	0.999	1.02	0.954	0.775	0.755	0.711	0.796	0.895	0.485	0.945	0.331	0.729	0.616	0.695	0.655	0.743	0.801	0.751
BEN	0.78	0.637	0.672	0.694	0.808	1.04	0.913	0.656	0.886	0.489	0.494	0.673	0.465	0.336	0.316	0.285	0.276	1.09	0.648	0.316
LCLC-97TM1	0.204	0.326	0.228	0.393	0.345	0.219	0.269	0.24	0.285	0.17	0.184	0.147	0.0986	0.515	0.608	0.423	0.392	0.228	0.233	0.581
EKVX	0.742	0.673	0.644	0.753	0.665	0.971	0.797	0.803	0.861	0.366	0.299	0.436	0.16	0.862	0.696	0.554	0.631	0.968	0.383	0.734
ABC-1	0.644	0.793	0.716	0.701	0.873	0.922	1.02	0.504	0.361	0.2	0.181	0.16	0.208	0.51	0.545	0.647	0.452	1.04	0.163	0.521
NCI-H522	0.796	0.698	0.692	0.762	0.822					0.562	0.517	0.574	0.5	0.653	0.646	0.717	0.738		0.527	0.686
